Where two headings read alike, the source gives them in different places.

Among the targets are CLK3 (Homo sapiens, UniProt P49761); CaMKK2 (Homo sapiens, UniProt Q96RR4); DAPK1 (Homo sapiens, UniProt P53355); FLT1 (Homo sapiens, UniProt P17948); MARK3 (Homo sapiens, UniProt P27448); MRCKa (Homo sapiens, UniProt Q5VT25); RSK1b (Homo sapiens, UniProt Q15418).
Common to all, as to assay: biochemical
Another assay deals with T1, MAP2K6 (Homo sapiens, UniProt P52564).
T1 sequence (P52564 1-334): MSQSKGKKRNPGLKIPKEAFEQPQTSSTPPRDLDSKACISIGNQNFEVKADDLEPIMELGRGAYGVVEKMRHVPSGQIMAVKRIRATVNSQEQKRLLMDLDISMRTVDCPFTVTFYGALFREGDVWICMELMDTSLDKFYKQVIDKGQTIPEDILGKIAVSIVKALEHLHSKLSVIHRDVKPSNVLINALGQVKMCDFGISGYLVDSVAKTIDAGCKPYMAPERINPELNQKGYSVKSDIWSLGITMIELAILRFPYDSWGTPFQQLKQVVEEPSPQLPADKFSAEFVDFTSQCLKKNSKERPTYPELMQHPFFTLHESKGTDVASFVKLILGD

The next assay has as its target T2, MAP3K5 (Homo sapiens, UniProt Q99683).
T2 sequence (Q99683 1-1374): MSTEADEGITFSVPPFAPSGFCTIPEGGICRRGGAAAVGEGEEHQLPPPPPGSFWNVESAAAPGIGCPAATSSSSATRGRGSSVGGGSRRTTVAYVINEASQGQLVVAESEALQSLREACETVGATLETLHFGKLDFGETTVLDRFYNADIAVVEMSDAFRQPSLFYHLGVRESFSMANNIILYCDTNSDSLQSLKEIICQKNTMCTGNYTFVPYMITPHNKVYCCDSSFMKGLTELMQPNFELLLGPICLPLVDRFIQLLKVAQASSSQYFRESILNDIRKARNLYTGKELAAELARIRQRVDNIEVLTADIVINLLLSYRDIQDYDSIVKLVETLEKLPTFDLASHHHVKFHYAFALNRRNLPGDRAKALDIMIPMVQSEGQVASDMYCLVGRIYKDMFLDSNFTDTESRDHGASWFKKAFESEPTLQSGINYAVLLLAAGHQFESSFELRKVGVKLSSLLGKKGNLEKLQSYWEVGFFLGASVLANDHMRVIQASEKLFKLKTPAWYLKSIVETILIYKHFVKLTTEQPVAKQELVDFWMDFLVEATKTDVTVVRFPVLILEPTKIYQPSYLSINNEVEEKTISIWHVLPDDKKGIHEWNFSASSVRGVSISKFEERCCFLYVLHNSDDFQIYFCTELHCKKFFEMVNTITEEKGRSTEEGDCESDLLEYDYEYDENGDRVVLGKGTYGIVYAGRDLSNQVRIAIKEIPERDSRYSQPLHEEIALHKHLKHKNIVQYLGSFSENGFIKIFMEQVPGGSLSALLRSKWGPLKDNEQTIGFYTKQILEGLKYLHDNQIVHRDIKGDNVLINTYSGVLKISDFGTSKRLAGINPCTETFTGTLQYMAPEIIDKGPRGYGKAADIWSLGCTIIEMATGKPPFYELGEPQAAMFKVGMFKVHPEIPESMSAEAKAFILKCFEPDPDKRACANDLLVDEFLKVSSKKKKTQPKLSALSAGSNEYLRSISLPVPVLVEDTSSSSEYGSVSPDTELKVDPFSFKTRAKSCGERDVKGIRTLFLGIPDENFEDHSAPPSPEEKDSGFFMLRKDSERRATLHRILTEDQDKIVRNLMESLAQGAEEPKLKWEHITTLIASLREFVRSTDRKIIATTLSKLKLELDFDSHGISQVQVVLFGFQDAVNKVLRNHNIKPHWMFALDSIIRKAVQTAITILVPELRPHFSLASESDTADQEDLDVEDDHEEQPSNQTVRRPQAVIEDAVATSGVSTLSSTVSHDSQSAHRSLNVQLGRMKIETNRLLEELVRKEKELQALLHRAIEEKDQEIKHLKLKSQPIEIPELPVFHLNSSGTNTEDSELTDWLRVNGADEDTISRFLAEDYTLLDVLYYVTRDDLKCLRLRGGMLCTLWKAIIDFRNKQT

The target in a further assay is T3, MAP2K7 (Homo sapiens, UniProt O14733).
T3 sequence (O14733 1-419): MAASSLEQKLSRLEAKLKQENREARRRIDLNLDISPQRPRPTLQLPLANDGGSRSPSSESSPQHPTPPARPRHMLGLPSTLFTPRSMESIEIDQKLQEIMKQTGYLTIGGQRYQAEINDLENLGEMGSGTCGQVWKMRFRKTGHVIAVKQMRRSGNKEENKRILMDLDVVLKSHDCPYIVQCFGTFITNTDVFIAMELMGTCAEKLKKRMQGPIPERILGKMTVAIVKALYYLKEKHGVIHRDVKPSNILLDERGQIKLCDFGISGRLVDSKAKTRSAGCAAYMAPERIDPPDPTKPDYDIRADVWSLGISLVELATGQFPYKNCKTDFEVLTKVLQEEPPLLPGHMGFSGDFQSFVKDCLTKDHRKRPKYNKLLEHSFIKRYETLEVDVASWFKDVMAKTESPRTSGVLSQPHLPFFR

FLT1, sequence (P17948 whole entry): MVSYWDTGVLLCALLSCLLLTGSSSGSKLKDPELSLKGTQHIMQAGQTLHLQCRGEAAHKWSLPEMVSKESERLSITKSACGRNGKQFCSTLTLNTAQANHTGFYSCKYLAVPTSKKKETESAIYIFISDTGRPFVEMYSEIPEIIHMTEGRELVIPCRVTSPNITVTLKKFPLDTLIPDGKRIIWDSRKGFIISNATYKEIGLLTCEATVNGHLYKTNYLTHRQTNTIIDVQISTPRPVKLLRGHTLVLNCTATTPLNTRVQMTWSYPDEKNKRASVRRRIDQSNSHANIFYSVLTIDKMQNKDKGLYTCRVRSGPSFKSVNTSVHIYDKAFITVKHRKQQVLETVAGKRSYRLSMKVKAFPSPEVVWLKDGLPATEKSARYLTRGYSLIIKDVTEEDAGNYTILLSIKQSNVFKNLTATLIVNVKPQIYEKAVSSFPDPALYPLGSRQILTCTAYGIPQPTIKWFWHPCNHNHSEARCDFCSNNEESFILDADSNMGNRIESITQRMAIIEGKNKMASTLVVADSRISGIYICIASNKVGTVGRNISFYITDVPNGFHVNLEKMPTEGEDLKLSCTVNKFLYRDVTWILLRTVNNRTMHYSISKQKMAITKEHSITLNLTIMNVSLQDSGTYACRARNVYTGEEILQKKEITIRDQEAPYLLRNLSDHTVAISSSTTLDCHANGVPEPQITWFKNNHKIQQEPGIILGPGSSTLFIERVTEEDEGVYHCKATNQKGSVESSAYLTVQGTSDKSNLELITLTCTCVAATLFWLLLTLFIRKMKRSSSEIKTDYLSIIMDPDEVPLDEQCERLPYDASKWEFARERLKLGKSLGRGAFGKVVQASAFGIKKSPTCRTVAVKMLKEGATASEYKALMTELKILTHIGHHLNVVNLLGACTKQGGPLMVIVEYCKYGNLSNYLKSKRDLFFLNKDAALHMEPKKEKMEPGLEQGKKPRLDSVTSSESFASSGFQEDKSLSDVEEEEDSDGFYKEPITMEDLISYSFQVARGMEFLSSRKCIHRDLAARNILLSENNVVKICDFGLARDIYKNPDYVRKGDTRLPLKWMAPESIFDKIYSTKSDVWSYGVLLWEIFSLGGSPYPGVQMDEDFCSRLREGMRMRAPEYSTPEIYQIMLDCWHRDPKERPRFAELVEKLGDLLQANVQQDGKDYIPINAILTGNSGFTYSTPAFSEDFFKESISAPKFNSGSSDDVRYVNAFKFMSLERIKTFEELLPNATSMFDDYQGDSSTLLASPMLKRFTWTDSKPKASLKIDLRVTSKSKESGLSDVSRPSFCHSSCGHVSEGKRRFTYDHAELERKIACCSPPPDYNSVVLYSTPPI
CLK3, sequence (P49761 whole entry): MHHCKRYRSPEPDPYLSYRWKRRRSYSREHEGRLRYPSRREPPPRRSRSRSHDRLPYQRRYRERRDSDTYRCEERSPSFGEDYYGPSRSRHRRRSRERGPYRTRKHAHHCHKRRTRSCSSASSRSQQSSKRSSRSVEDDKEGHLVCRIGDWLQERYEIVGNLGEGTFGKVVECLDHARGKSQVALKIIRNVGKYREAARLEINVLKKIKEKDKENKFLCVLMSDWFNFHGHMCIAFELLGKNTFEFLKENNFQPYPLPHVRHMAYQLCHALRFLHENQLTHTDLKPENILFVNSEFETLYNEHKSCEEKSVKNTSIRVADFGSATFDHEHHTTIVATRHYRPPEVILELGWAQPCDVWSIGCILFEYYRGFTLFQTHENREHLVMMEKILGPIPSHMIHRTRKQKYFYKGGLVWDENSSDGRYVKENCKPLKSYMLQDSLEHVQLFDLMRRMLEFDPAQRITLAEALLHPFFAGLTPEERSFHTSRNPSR
DAPK1, sequence (P53355 whole entry): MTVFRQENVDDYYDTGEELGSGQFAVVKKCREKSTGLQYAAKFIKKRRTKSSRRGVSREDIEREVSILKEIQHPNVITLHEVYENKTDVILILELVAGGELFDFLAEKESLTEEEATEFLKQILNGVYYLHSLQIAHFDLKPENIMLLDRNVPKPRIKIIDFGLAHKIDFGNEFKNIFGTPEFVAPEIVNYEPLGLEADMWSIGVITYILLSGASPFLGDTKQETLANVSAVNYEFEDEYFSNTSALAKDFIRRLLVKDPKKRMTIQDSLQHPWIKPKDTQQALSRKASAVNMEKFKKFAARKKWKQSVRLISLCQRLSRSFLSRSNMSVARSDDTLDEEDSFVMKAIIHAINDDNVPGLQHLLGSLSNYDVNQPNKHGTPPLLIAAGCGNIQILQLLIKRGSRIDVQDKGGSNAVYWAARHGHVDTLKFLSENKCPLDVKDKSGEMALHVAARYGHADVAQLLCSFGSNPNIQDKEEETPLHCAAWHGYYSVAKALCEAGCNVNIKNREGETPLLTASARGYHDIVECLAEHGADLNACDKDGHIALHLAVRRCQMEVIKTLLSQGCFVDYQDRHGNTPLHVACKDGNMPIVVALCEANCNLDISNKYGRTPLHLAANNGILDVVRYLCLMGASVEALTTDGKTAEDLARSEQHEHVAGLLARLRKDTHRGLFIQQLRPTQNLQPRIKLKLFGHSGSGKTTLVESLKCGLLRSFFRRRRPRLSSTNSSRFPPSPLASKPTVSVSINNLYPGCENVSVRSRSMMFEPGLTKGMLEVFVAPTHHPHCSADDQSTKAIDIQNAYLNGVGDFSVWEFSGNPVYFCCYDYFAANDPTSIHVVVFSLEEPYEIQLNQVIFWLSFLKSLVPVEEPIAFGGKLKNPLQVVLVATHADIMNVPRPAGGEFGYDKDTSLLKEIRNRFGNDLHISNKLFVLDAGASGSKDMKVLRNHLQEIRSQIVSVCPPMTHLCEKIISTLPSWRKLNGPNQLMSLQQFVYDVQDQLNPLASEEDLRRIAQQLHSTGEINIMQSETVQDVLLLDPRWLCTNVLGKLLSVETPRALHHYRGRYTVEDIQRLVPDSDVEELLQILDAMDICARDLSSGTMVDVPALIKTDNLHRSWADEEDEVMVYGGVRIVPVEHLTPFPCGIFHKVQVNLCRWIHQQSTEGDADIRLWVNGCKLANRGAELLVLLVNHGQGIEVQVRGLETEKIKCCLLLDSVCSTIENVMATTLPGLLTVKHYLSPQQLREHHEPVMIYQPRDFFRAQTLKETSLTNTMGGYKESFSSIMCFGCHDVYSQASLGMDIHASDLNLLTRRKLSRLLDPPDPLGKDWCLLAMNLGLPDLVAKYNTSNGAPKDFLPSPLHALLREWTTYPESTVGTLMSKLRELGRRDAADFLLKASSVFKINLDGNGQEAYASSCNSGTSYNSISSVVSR
RSK1b, sequence (Q15418 whole entry): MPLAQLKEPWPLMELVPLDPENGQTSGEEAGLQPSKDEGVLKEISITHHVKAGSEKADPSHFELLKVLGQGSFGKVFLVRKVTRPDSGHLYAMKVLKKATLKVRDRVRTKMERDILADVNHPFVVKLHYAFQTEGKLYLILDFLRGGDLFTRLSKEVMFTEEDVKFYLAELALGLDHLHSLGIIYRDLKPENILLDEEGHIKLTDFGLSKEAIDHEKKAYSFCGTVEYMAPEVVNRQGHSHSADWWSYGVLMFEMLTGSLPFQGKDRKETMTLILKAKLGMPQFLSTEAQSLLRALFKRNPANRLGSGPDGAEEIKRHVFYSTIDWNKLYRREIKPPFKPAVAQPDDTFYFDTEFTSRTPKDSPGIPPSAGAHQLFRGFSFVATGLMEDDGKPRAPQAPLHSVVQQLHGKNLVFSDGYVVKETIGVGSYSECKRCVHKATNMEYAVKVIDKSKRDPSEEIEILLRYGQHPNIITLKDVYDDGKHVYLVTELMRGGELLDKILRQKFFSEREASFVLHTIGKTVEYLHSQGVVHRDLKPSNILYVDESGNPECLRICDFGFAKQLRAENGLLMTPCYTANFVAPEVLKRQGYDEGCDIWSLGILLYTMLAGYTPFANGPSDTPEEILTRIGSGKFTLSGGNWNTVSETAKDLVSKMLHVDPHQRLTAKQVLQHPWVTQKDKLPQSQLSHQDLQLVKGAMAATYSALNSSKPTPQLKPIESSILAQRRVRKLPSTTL
MARK3, sequence (P27448 whole entry): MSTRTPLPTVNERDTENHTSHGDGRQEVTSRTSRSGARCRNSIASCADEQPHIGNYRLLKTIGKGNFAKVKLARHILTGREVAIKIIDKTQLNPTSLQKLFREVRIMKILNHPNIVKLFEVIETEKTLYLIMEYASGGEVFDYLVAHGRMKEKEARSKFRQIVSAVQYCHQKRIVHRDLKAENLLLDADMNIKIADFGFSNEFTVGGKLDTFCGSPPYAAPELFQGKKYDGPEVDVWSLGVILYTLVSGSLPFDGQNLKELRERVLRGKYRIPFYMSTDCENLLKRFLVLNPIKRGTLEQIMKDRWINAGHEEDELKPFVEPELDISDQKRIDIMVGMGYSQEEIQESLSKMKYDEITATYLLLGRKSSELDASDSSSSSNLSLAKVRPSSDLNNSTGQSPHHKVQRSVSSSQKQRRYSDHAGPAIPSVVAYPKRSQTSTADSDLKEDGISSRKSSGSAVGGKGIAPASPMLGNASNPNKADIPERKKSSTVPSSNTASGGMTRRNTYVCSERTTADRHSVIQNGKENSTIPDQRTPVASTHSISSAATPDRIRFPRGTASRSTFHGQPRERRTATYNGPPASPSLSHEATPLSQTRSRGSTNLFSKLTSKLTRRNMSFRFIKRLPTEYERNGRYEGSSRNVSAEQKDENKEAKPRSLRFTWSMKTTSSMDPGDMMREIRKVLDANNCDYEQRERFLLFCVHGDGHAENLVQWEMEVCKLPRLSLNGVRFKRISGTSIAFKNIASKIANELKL

Take `CNc1ncc2cc(-c3ccc(-c4cccc(C)n4)cc3Cl)c(=O)n(CC3OCC(N)CO3)c2n1` (stereo not shown) [compound 2, G-5555]: the “dTm G-5555 (2)” value on CLK3 (10 µM, binder) is 0.1 °C; at CaMKK2 (10 µM, binder) it was 1.1 °C; on DAPK1 (10 µM, binder), -1.0 °C; at FLT1 (10 µM, binder), 1.7 °C; at MAP2K6 (10 µM, binder), 4.4 °C; on MAP3K5 (10 µM, binder), 8.9 °C. Further, the “dTm G-5555 (2)” value on MARK3 (10 µM, binder) turned out to be 8.8 °C; on MRCKa (10 µM, binder), 0.9 °C; on RSK1b (10 µM, binder), 0.0 °C.

As for `CNc1ncc2cc(-c3ccccc3Cl)c(=O)n(CCCCN)c2n1` [compound 4, 8-(4-Aminobutyl)-6-(2-chlorophenyl)-2-(methylamino)pyrido[2,3-d]pyrimidin-7(8H)-one], the ΔTm at 10 µM was 0 °C on CLK3 (read-out: dTm MR21 (4)); 0.6 °C on CaMKK2 (read-out: dTm MR21 (4)); -0.2 °C on DAPK1 (read-out: dTm MR21 (4)); 5.4 °C on FLT1 (read-out: dTm MR21 (4)); 3.1 °C on MAP2K6 (read-out: dTm MR21 (4)); 1.1 °C on MAP2K7 (read-out: dTm MR21 (4)). Further, the ΔTm at 10 µM worked out at 2.9 °C at MAP3K5 (read-out: dTm MR21 (4)), 5.3 °C at MARK3 (read-out: dTm MR21 (4)), 0.2 °C on MRCKa (read-out: dTm MR21 (4)) and 5.8 °C at RSK1b (read-out: dTm MR21 (4)).

Take `CNc1ncc2cc(-c3cc(Br)ccc3Cl)c(=O)n(C[C@H]3OC[C@H](N)CO3)c2n1` [compound 7, 8-(((2r,5r)-5-Amino-1,3-dioxan-2-yl)methyl)-6-(5-bromo-2-chlorophenyl)-2-(methylamino)pyrido[2,3-d]pyrimidin-7(8H)-one]: the ΔTm at 10 µM turned out to be 0.5 °C on CLK3 (read-out: dTm 7); 0.5 °C on CaMKK2 (read-out: dTm 7); 0.1 °C at DAPK1 (read-out: dTm 7); 5.4 °C at FLT1 (read-out: dTm 7); 0.9 °C at MAP2K6 (read-out: dTm 7); 0.1 °C on MAP2K7 (read-out: dTm 7). The ΔTm at 10 µM at MAP3K5 (read-out: dTm 7) turned out to be 0.8 °C; on MARK3 (read-out: dTm 7) it was 1.7 °C; on MRCKa (read-out: dTm 7) it was 0.1 °C; on RSK1b (read-out: dTm 7), 5.1 °C.

As for `CNc1ncc2cc(-c3cc(Br)ccc3Cl)c(=O)n(CCCCN)c2n1` [compound 6, 8-(4-Aminobutyl)-6-(5-bromo-2-chlorophenyl)-2-(methylamino)pyrido[2,3-d]pyrimidin-7(8H)-one], the ΔTm at 10 µM was -0.3 °C on CLK3 (read-out: dTm 6); -0.2 °C at CaMKK2 (read-out: dTm 6); -0.2 °C on DAPK1 (read-out: dTm 6); 6 °C on FLT1 (read-out: dTm 6); 1.4 °C at MAP2K6 (read-out: dTm 6); 0.9 °C at MAP2K7 (read-out: dTm 6). In addition, the ΔTm at 10 µM on MAP3K5 (read-out: dTm 6) worked out at 0.9 °C; on MARK3 (read-out: dTm 6) it was 3.5 °C; on MRCKa (read-out: dTm 6), 0.5 °C; on RSK1b (read-out: dTm 6), 6.3 °C.

On to `CNc1ncc2cc(-c3cc(F)ccc3F)c(=O)n(CCCCN)c2n1` [compound 5, 8-(4-Aminobutyl)-6-(2,5-difluorophenyl)-2-(methylamino)pyrido[2,3-d]pyrimidin-7(8H)-one], for which the ΔTm at 10 µM at CLK3 (read-out: dTm MR22 (5)) was -0.4 °C; on CaMKK2 (read-out: dTm MR22 (5)) it was -0.1 °C; on DAPK1 (read-out: dTm MR22 (5)) it was -0.7 °C; on FLT1 (read-out: dTm MR22 (5)), 4.6 °C; at MAP2K6 (read-out: dTm MR22 (5)), 1 °C; at MAP2K7 (read-out: dTm MR22 (5)) it was -0.9 °C. For the same compound, the ΔTm at 10 µM on MAP3K5 (read-out: dTm MR22 (5)) is 1 °C; at MARK3 (read-out: dTm MR22 (5)), 1.1 °C; on MRCKa (read-out: dTm MR22 (5)), -0.5 °C; on RSK1b (read-out: dTm MR22 (5)) it was 5.4 °C.

These data come from article doi:10.1101/2023.03.24.534094v2 (biorxiv, 2023).
